A short description of series [1]: Photophysical property of the compound assessed as fluorescence quantum yield by UV-vis spectrophotometric analysis. The format is physicochemical.
Series [2] in a line: Photophysical property of the compound assessed as singlet oxygen quantum yield by UV-vis spectrophotometric analysis. In kind it is physicochemical.
Series [3] is described as follows: Induction of singlet oxygen quantum yield under 418 nm light irradiation by DPBF based assay. The format is functional.
The test system of series [4] is Staphylococcus aureus. Kind of series: Antibacterial activity against Staphylococcus aureus assessed as bacterial growth inhibition preincubated with compound for 15 mins followed by light irradiated with 730 nm, 40 J/cm2 and measured after 24 hrs by broth microdilution method. The conditions noted are these: light or radiation study, 24.25 h, time 1455 min. The format is functional. On the technique in general: In broth dilution the organism is exposed to a series of concentrations in liquid medium.

Series [5] relates to Staphylococcus aureus. Kind of series: Antibacterial activity against Staphylococcus aureus assessed as bacterial growth inhibition measured after 24 hrs by broth microdilution method. In kind it is functional.
Series [6] concerns Escherichia coli. Kind of series: Antibacterial activity against Escherichia coli assessed as bacterial growth inhibition measured after 24 hrs by broth microdilution method. In kind it is functional.
Series [7] concerns Escherichia coli. Kind of series: Antibacterial activity against Escherichia coli assessed as bacterial growth inhibition preincubated with compound for 15 mins followed by light irradiated with 730 nm, 40 J/cm2 and measured after 24 hrs by broth microdilution method. In kind it is functional. Conditions: light or radiation study, 24.25 h, time 1455 min.
Series [8] concerns Candida albicans. Kind of series: Antifungal activity against Candida albicans assessed as fungal growth inhibition measured after 24 hrs by broth microdilution method. In kind it is functional.
For series [9], the system named is Candida albicans. Kind of series: Antifungal activity against Candida albicans assessed as fungal growth inhibition preincubated with compound for 15 mins followed by light irradiated with 730 nm, 40 J/cm2 and measured after 24 hrs by broth microdilution method. Conditions: light or radiation study, 24.25 h, time 1455 min. The format is functional.
Series [10] deals with Staphylococcus aureus. Kind of series: Antibacterial activity against Staphylococcus aureus preincubated with compound for 15 mins followed by light irradiation with 730 nm, 40 J/cm2 by cell counting analysis. The conditions noted are these: dose 0.5-8 µM. The format is functional, organism-based.
The subject of series [11] is Staphylococcus aureus. Kind of series: Antibacterial activity against Staphylococcus aureus assessed as reduction in viable bacteria at 0.5 uM preincubated with compound for 15 mins followed by light irradiation with 730 nm, 40 J/cm2 by cell counting analysis relative to control. The format is functional. The conditions noted are these: 0.25 h.
Series [12] deals with Staphylococcus aureus. Put plainly: Antibacterial activity against Staphylococcus aureus assessed as log reduction in bacterial viability at 8 uM preincubated with compound for 15 mins followed by light irradiation with 730 nm, 40 J/cm2 by cell counting analysis relative to control. In kind it is functional. The conditions noted are these: 0.25 h.
For series [13], the system named is Staphylococcus aureus. Kind of series: Antibacterial activity against Staphylococcus aureus assessed as eradication rate at 8 uM preincubated with compound for 15 mins followed by light irradiation with 730 nm, 40 J/cm2 relative to control. In kind it is functional. The conditions noted are these: 0.25 h.
Series [14] has as its system Staphylococcus aureus. Put plainly: Bactericidal activity against Staphylococcus aureus at 0.5 to 8 uM. The format is functional, organism-based. The conditions noted are these: dose 0.5-8 µM.
Series [15] relates to Staphylococcus aureus. Kind of series: Antibiofilm activity against Staphylococcus aureus assessed as disruption of mature biofilm structure at 16 uM preincubated for 15 mins followed by light irradiation with 730 nm, 40 J/cm2 by crystal violet staining based analysis. In kind it is functional, organism-based.
The subject of series [16] is Staphylococcus aureus. Kind of series: Antibiofilm activity against Staphylococcus aureus assessed as disruption of mature biofilm rate at 16 uM preincubated for 15 mins followed by light irradiation with 730 nm, 40 J/cm2 by crystal violet staining based analysis relative to control. In kind it is functional. Conditions: 0.25 h.
For series [17], the system named is Staphylococcus aureus. Kind of series: Antibiofilm activity against Staphylococcus aureus assessed as reduction in green fluorescence intensity at 16 uM preincubated for 15 mins followed by light irradiation with 730 nm, 40 J/cm2 by SYTO 9/PI staining based CLSM analysis. The format is functional, organism-based.
Series [18] has as its system Staphylococcus aureus. Put plainly: Antibiofilm activity against Staphylococcus aureus assessed as increase in red fluorescence intensity at 16 uM preincubated for 15 mins followed by light irradiation with 730 nm, 40 J/cm2 by SYTO 9/PI staining based CLSM analysis. The format is functional, organism-based.
Series [19] in a line: Dark cytotoxicity against human HaCaT cells assessed as cell viability at 16 uM preincubated for 15 mins by MTT assay. The format is toxicity, cell-based. Conditions: read-out: Activity. For orientation: Tetrazolium assays rely on reduction of a dye to a coloured formazan, in cell work by metabolically active cells.
Series [20] relates to HaCaT. Put plainly: Phototoxicity in human HaCaT cells assessed as cell viability at 16 uM preincubated for 15 mins by MTT assay. In kind it is functional, cell-based.
Series [21] has as its system HaCaT. Kind of series: Phototoxicity in human HaCaT cells assessed as cell viability at 16 uM preincubated for 15 mins followed by light irradiation with 730 nm, 40 J/cm2 by MTT assay. In kind it is functional, cell-based.

The source made the active and inactive calls. The rule behind the calls is not given here. Some results are limits rather than exact numbers.

In the case of `[Br-].[Br-].[Br-].[Br-].c1cc[n+](CCCCOc2ccc(-c3c4nc(c(-c5ccc(OCCCC[n+]6ccccc6)cc5)c5[nH]c(c(-c6ccc(OCCCC[n+]7ccccc7)cc6)c6nc(c(-c7ccc(OCCCC[n+]8ccccc8)cc7)c7[nH]c3c3cc8ccccc8cc73)-c3cc7ccccc7cc3-6)c3cc6ccccc6cc53)-c3cc5ccccc5cc3-4)cc2)cc1`, the Activity turned out to be 0.08 in [1] and 0.45 in series [2]. Further, the outcome in series [3] was Active. The MIC in series [4] was 32 µM; in [5], 64 µM; in series [6] it was over 64 µM; in series [7] it was over 64 µM; in series [8] it was 64 µM; in series [9], 32 µM.
Regarding `CC[N+](C)(CC)CCCCOc1ccc(-c2c3nc(c(-c4ccc(OCCCC[N+](C)(CC)CC)cc4)c4[nH]c(c(-c5ccc(OCCCC[N+](C)(CC)CC)cc5)c5nc(c(-c6ccc(OCCCC[N+](C)(CC)CC)cc6)c6[nH]c2c2cc7ccccc7cc62)-c2cc6ccccc6cc2-5)c2cc5ccccc5cc42)-c2cc4ccccc4cc2-3)cc1.[Br-].[Br-].[Br-].[Br-]`, the Activity in series [1] was 0.07; in [2] it was 0.56. Besides, the result in series [3] was Active. Besides, the minimal inhibitory concentration (MIC) was 8 µM in [4]; 16 µM in series [5]; over 64 µM in series [6]; over 64 µM in series [7]; 64 µM in series [8]; 64 µM in series [9].
Take `C[N+](C)(C)CCCCCOc1ccc(-c2c3nc(c(-c4ccc(OCCCCC[N+](C)(C)C)cc4)c4[nH]c(c(-c5ccc(OCCCCC[N+](C)(C)C)cc5)c5nc(c(-c6ccc(OCCCCC[N+](C)(C)C)cc6)c6[nH]c2c2cc7ccccc7cc62)-c2cc6ccccc6cc2-5)c2cc5ccccc5cc42)-c2cc4ccccc4cc2-3)cc1.[Br-].[Br-].[Br-].[Br-]`: the Activity in series [1] is 0.07; in series [2] it was 0.47. In [3], the outcome was Active. Further, the MIC in series [4] is 16 µM; in series [5], 64 µM; in [6], over 64 µM; in [7], over 64 µM; in [8], 64 µM; in series [9], 64 µM.
Take `C[N+](C)(C)CCCCOc1ccc(-c2c3nc(c(-c4ccc(OCCCC[N+](C)(C)C)cc4)c4[nH]c(c(-c5ccc(OCCCC[N+](C)(C)C)cc5)c5nc(c(-c6ccc(OCCCC[N+](C)(C)C)cc6)c6[nH]c2c2cc7ccccc7cc62)-c2cc6ccccc6cc2-5)c2cc5ccccc5cc42)-c2cc4ccccc4cc2-3)cc1.[Br-].[Br-].[Br-].[Br-]`: the Activity in [1] stood at 0.08; in series [2], 0.41. In addition, the result in series [3] was Active. The MIC is 16 µM in series [4]; 32 µM in series [5]; over 64 µM in [6]; over 64 µM in series [7]; 64 µM in series [8]; 64 µM in series [9].
Regarding `CC[N+](C)(CC)CCCCCOc1ccc(-c2c3nc(c(-c4ccc(OCCCCC[N+](C)(CC)CC)cc4)c4[nH]c(c(-c5ccc(OCCCCC[N+](C)(CC)CC)cc5)c5nc(c(-c6ccc(OCCCCC[N+](C)(CC)CC)cc6)c6[nH]c2c2cc7ccccc7cc62)-c2cc6ccccc6cc2-5)c2cc5ccccc5cc42)-c2cc4ccccc4cc2-3)cc1.[Br-].[Br-].[Br-].[Br-]`, the Activity stood at 0.07 in series [1] and 0.67 in series [2]. Moreover, the outcome in series [3] was Active. For the same compound, the MIC is 16 µM in series [4]; 32 µM in series [5]; over 64 µM in series [6]; over 64 µM in series [7]; 64 µM in series [8]; 64 µM in [9].
Turning to `[Br-].[Br-].[Br-].[Br-].c1cc[n+](CCCCCCOc2ccc(-c3c4nc(c(-c5ccc(OCCCCCC[n+]6ccccc6)cc5)c5[nH]c(c(-c6ccc(OCCCCCC[n+]7ccccc7)cc6)c6nc(c(-c7ccc(OCCCCCC[n+]8ccccc8)cc7)c7[nH]c3c3cc8ccccc8cc73)-c3cc7ccccc7cc3-6)c3cc6ccccc6cc53)-c3cc5ccccc5cc3-4)cc2)cc1`, the results for the Activity in [1] and in [2] were 0.07 and 0.52, respectively. For the same compound, the result in series [3] was Active. Also, the MIC in series [4] was 64 µM; in [5] it was 64 µM; in [6] it was over 64 µM; in series [7] it was over 64 µM; in series [8] it was 64 µM; in series [9], 64 µM.
Turning to `[Br-].[Br-].[Br-].[Br-].c1cc[n+](CCCOc2ccc(-c3c4nc(c(-c5ccc(OCCC[n+]6ccccc6)cc5)c5[nH]c(c(-c6ccc(OCCC[n+]7ccccc7)cc6)c6nc(c(-c7ccc(OCCC[n+]8ccccc8)cc7)c7[nH]c3c3cc8ccccc8cc73)-c3cc7ccccc7cc3-6)c3cc6ccccc6cc53)-c3cc5ccccc5cc3-4)cc2)cc1`, the Activity was 0.07 in series [1]; 0.45 in series [2]; “Dose-dependent-effect” in series [10]; over 75% in series [11]; over 99.9% in [13]; 77.5% in series [16]. The outcome in [3], in [14], in [15], in series [17] and in [18] was Active. The MIC in series [4] was 8 µM; in series [5], 32 µM; in series [6], over 64 µM; in series [7], over 64 µM; in [8] it was 64 µM; in series [9], 32 µM. For the same compound, in series [12], the “log(activity)” value is given as 3. In addition, the viability at 0.25 h, 16 µM in series [19] was over 80%. The outcome in [20] and in series [21] was inactive.
Turning to `[Br-].[Br-].[Br-].[Br-].c1cc[n+](CCCCCOc2ccc(-c3c4nc(c(-c5ccc(OCCCCC[n+]6ccccc6)cc5)c5[nH]c(c(-c6ccc(OCCCCC[n+]7ccccc7)cc6)c6nc(c(-c7ccc(OCCCCC[n+]8ccccc8)cc7)c7[nH]c3c3cc8ccccc8cc73)-c3cc7ccccc7cc3-6)c3cc6ccccc6cc53)-c3cc5ccccc5cc3-4)cc2)cc1`, the Activity in series [1] stood at 0.08; in series [2], 0.5. In addition, in [3], the outcome was Active. Besides, the MIC in series [4] was 32 µM; in [5] it was 64 µM; in series [6] it was over 64 µM; in [7], over 64 µM; in [8], 64 µM; in [9], 32 µM.
As for `CC[N+](C)(CC)CCCCCCOc1ccc(-c2c3nc(c(-c4ccc(OCCCCCC[N+](C)(CC)CC)cc4)c4[nH]c(c(-c5ccc(OCCCCCC[N+](C)(CC)CC)cc5)c5nc(c(-c6ccc(OCCCCCC[N+](C)(CC)CC)cc6)c6[nH]c2c2cc7ccccc7cc62)-c2cc6ccccc6cc2-5)c2cc5ccccc5cc42)-c2cc4ccccc4cc2-3)cc1.[Br-].[Br-].[Br-].[Br-]`, the Activity came to 0.07 in series [1] and 0.68 in series [2]. In addition, in series [3], the outcome was Active. For the same compound, the MIC in series [4] was 64 µM; in series [5] it was 64 µM; in series [6], over 64 µM; in series [7], over 64 µM; in [8], 64 µM; in series [9] it was 64 µM.
With `C[N+](C)(C)CCCCCCOc1ccc(-c2c3nc(c(-c4ccc(OCCCCCC[N+](C)(C)C)cc4)c4[nH]c(c(-c5ccc(OCCCCCC[N+](C)(C)C)cc5)c5nc(c(-c6ccc(OCCCCCC[N+](C)(C)C)cc6)c6[nH]c2c2cc7ccccc7cc62)-c2cc6ccccc6cc2-5)c2cc5ccccc5cc42)-c2cc4ccccc4cc2-3)cc1.[Br-].[Br-].[Br-].[Br-]`, the Activity in [1] is 0.07; in series [2], 0.48. Further, the result in series [3] was Active. Moreover, the MIC is 16 µM in series [4]; 64 µM in series [5]; over 64 µM in series [6]; over 64 µM in series [7]; 64 µM in series [8]; 64 µM in series [9].

As usually defined, the MIC is the lowest concentration found to suppress growth.

Values taken from ChEMBL document CHEMBL6182869, “Tetracationic tetraaryltetranaphtho[2,3]porphyrins for photodynamic inactivation against Staphylococcus aureus biofilm” (Eur J Med Chem, 2025).
